Here are results for one compound from patent publication US9439875B2, “Anxiolytic effect of pterostilbene” (The United States of America, as represented by The …, priority 2011, dated 2016).

In data set [1] the test system is Swiss Webster mice. The data set can be described thus: Spontaneous motor (locomotor) activity. The format is in vivo, mouse. The method, then: To measure spontaneous motor activity, adult Swiss Webster mice (n=8-10/group) were administered with pterostilbene by oral gavage. Each mouse was then placed in the locomotor chamber and acclimated in the Plexiglas enclosure for 30 min. After the 30 min acclimation period, locomotor activity was measured for 30 min using an automated activity monitoring system (San Diego Instruments, CA, USA). Total activity was expressed as the total number of interruptions of 16 cell photobeams per chamber.

Data set [2] is described as follows: Plasma level of pterostilbene by GC-MS. The format is in vivo. The note with it: mouse, after EPM session; for concentration at 65 min: Swiss Webster, plasma, oral, read-out: Pterostilbene level in the plasma (± SD). As to the method:
(§1) After the EPM session, blood samples were taken from each mouse by submandibular vein puncture in heparinized blood collection vials. Mice were then sacrificed and brains quickly removed. Their prefrontal cortex (PFC) and hippocampus were dissected out on ice, and immediately frozen in liquid nitrogen and stored at −80° C. until further processing. Blood samples were centrifuged at 2000 rpm at 4° C. for 20 min to get the plasma as supernatant. The plasma samples were stored at −80° C. until used.
Plasma were kept at −80° C., and thawed on ice prior to extraction. Plasma were treated with β-glucuronidase, to hydrolyze any glucuronidated pterostilbene, following published procedures (Remsberg et al., supra). Briefly, 50 μL plasma (from each animal) was transferred to an Eppendorf tube, and 60 μL of β-glucuronidase solution (5000 U/mL potassium phosphate buffer, 75 mM, pH 6.8 at 37° C.) was added. The mixture was vortex-mixed then incubated at 37° C. while shaking at 750 rpm for 20 hrs. Thereafter, ice-cold HPLC grade acetonitrile was added, vortex-mixed, and centrifuged for 5 min at 5000 rpm, 4° C. The supernatant was collected, and dried under a stream of nitrogen. The dried supernatant was used for GC-MS analysis.
(§2) The nitrogen-dried samples (plasma and brain tissue extracts) were treated with 30 μL of a 1:1 mixture of N,O-bis[trimethylsilyl]trifluoroacetamide and dimethylformamide (Pierce Biotechnology, Inc., Rockford, Ill.) and heated at 70° C. for 40 min. The derivatized samples were analyzed for levels of pterostilbene using a JEOL GCMate II Instrument (JEOL USA Inc., Peabody, Mass.) equipped with a J&W DB-5 capillary column (0.25 mm internal diameter, 0.25 μm film thickness, and 30 m length; Agilent Technologies, Foster City, Calif.). […] The carrier gas was ultrahigh purity helium, at 1 mL/min flow rate. The injection port, GC-MS interface, and ionization chamber were kept at 250, 230, and 230° C., respectively. The volume of injection was 2 μL (splitless injection). The mass spectrum was acquired in the positive, selected ion-monitoring mode (m/z 328, 313, and 297); electron impact 70 eV. GC-MS analyses were in duplicates. The retention time of pterostilbene was 10.2 min. Quantitation of pterostilbene was done using an external standard of a synthetic sample of pterostilbene previously characterized for structure and purity.

The nature of data set [3]: Hippocampus level of pterostilbene by GC-MS. The format is in vivo, mouse. The note with it: for Pterostilbene level in the hippocampus (± SD): mouse. The method, then:
as §1
Hippocampus tissues were kept at −80° C. until time of extraction. Hippocampus (left and right) from 2-3 animals was combined in an Eppendorf tube, and processed as one sample. To the tube was added 200 μL phosphate buffer (0.2M NaH2PO4:0.2M Na2HPO4, and the tissues were homogenized manually for 2 minutes. To 100 μl aliquot, 50 μL β-glucuronidase (5000 U/mL potassium phosphate buffer) was added. The mixture was vortex-mixed, and incubated (37° C., 20 hours) while shaking (750 rpm). The samples were then centrifuged (15 min, 7000 g, 4° C.). The supernatant was collected and partitioned with ethyl acetate (200 μL, twice). The ethyl acetate layers were combined, dried under a stream of nitrogen, and used for GC-MS analysis. Extraction of the prefrontal cortex (PFC) was performed in the same manner as the hippocampus; PFC tissues from three animals were combined and treated as one sample.
as §2

The nature of data set [4]: Prefrontal cortex level of pterostilbene by GC-MS. The note with it: all the doses administered (1-10 mg/kg p.o.). In kind it is in vivo, mouse. The method, then: as §1
Hippocampus tissues were kept at −80° C. until time of extraction. Hippocampus (left and right) from 2-3 animals was combined in an Eppendorf tube, and processed as one sample. […]
The nitrogen-dried samples (plasma and brain tissue extracts) were treated with 30 μL of a 1:1 mixture of N,O-bis[trimethylsilyl]trifluoroacetamide and dimethylformamide (Pierce Biotechnology, Inc., Rockford, Ill.) and heated at 70° C. for 40 min. The derivatized samples were analyzed for levels of pterostilbene using a JEOL GCMate II Instrument (JEOL USA Inc., Peabody, Mass.) equipped with a J&W DB-5 capillary column (0.25 mm internal diameter, 0.25 μm film thickness, and 30 m length; Agilent Technologies, Foster City, Calif.). […] Quantitation of pterostilbene was done using an external standard of a synthetic sample of pterostilbene previously characterized for structure and purity.

For data set [5] the following is noted: in vivo; cited from earlier work.

Values joined by “and” are separate entries in the source; they are usually repeats but may differ in a detail not shown here. Equal values may be shown once. “Also recorded” adds a separate entry of the source. Read-outs that look alike come from different tables or passages of the source.

Regarding `COc1cc(/C=C/c2ccc(O)cc2)cc(OC)c1` [pterostilbene], the “locomotor activity (total number of photobeam interruptions per chamber)” value in data set [1] (1-10 mg/kg by oral gavage, one-way ANOVA) is reported as “no stimulant or depressive actions; also recorded: no significant effect”. In data set [1] (higher doses), the “sedating tendency in EPM and locomotor activity monitoring chambers” value is given as “did not show any sedating tendency”. Further, the locomotor activity entry in data set [1] (highest dose (10 mg/kg)) is given as “didn't have any effect”. For the same compound, the spontaneous motor activity result in data set [1] (maximal anxiolytic dose (2 mg/kg), post hoc comparison) is on record as “not affected”. Further, the results for the “Pterostilbene level in the plasma (± SD)” value in data set [2] (1 mg/kg BW p.o.) and in data set [2] (10 mg/kg BW p.o.) were 10.0887 ± 6.6699 ng/mL and 130.2651 ± 40.2558 ng/mL, respectively. For the same compound, the concentration at 65 min worked out at 10.1 ± 6.67 ng/mL in data set [2] (1 mg/kg BW, 1 mg/kg BW p.o.); 27 ± 7.27 ng/mL in data set [2] (2 mg/kg BW, 2 mg/kg BW p.o.); 72 ± 19 ng/mL in data set [2] (5 mg/kg BW, 5 mg/kg BW p.o.); 130 ± 40.2 ng/mL in data set [2] (10 mg/kg BW, 10 mg/kg BW p.o.). Besides, the “Pterostilbene level in the hippocampus (± SD)” value in data set [3] (2 mg/kg BW p.o.) was 0.2627 ± 0.0230 ng/hippocampus; in data set [3] (5 mg/kg BW p.o.) it was 0.5314 ± 0.1830 ng/hippocampus; in data set [3] (10 mg/kg BW p.o.) it was 1.1217 ng/hippocampus and 1.1217 ± 0.1322 ng/hippocampus. The “Pterostilbene level in the hippocampus” value in data set [3] (range over 2, 5 and 10 mg/kg doses) was 0.2627-1.1217 ng/hippocampus. Besides, the “Pterostilbene level in the pre-frontal cortex tissues” value in data set [4] is “trace levels”. Moreover, the half-life entry in data set [5] is on record as “approximately 2 hr”.
